Experimental data as given in patent US20250073249A1, “STEROID COMPOUND, AND PREPARATION METHOD THEREFOR AND USE THEREOF” (SHANGHAI INSTITUTE OF MATERIA MEDICA, CHINESE ACADEMY OF …, priority 2022, published 2025).

Assays:
Type in all cases: cell-based
AR = biological target: T1, AR (Homo sapiens, UniProt P10275, T878A); experiment: In vitro AR degradation activity test in LNCaP cells (ELISA, OD450); settings: LNCaP cells, 24 hours
T1 construct: endogenous in cells; host or cells: LNCaP
T1 sequence (P10275 1-920 T878A): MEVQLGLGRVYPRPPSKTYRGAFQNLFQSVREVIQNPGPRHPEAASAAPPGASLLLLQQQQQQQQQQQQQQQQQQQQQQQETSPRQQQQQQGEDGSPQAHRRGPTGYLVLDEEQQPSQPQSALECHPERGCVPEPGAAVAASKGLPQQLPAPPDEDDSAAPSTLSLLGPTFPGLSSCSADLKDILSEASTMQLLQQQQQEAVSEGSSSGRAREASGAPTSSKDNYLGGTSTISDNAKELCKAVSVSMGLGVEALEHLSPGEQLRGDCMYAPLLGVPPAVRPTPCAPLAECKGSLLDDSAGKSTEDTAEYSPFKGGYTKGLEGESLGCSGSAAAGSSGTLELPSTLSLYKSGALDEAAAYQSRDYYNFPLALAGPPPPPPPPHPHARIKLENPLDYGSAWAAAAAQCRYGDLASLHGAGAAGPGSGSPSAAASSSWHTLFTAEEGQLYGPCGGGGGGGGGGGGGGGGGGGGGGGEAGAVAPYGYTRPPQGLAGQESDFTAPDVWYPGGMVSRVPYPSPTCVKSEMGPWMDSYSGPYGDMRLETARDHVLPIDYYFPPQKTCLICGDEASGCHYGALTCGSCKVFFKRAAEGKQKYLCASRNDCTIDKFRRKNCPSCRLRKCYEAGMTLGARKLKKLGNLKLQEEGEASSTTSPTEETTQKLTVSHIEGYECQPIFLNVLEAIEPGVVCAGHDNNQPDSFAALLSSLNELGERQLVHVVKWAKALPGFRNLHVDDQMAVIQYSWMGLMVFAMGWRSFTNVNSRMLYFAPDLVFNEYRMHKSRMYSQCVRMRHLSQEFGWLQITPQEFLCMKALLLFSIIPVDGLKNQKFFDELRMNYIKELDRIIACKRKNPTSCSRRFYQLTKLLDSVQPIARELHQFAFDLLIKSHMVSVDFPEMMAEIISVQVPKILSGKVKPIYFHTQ
Description: The cells were then digested with trypsin and counted using an automated cell counter. The cell suspension was diluted to the desired density in growth medium. The cell suspension was then seeded into 96-well plates at 100 μL per well, and the plates were incubated at 37° C. with 5% CO2 for 24 hours. The compounds were then diluted 200-fold to the final concentration with DMSO or 3-fold to the final concentration with culture medium. 50 μL of compound solution was transferred to the 96-well plate and incubated at 37° C. for 24 hours. After 24 hours of incubation, the cell plate was washed 3 times with DPBS, 100 μL of 1× lysis buffer was added to each well, and placed on ice for 30 minutes. The supernatant was collected. The protein in the cell lysate samples was quantified and then diluted to the required concentration. 100 μL of cell lysate sample was added to the appropriate wells, sealed with tape and pressed firmly on top of the wells, and the plate was incubated at 37° C. for 2 hours. The plate contents were then discarded, and washed 4 times with 1× wash buffer, 200 μL per well each time. 100 μL of reconstituted detection antibody was then added, the plate was sealed with tape and incubated at 37° C. for 1 hour. The aspiration/wash step was then repeated, 100 μL of reconstituted HRP-Linked secondary antibody was added to each well, the plate was sealed with tape and incubated at 37° C. for 30 minutes. The aspiration/wash step was then repeated, 100 μL of substrate solution was added to each well and incubated at 37° C. for 10 minutes, and finally 100 μL of stop solution was added to each well. The plate was gently tapped to ensure thorough mixing, and the OD450 nm was recorded.
Degradation rate (%)=(OD450_max−OD450_sample)/(OD450_max−OD450_min)×100,plotted using GraphPad Prism 5 software, and IC50 is calculated using SPSS software.

TMPRSS2 = TMPRSS2 mRNA expression in A549 cells (qPCR)
ACE2 = ACE2 mRNA expression in A549 cells (qPCR)
[1] = 10 μM, 1 nM DHT, 48 h, Blank = 1

Compound: C[C@]12CC[C@H](NC(=O)c3ccnnc3)CC1=CCC1C2CC[C@]2(C)C(n3cnc([N+](=O)[O-])c3)=CCC12 (some centres unmarked) [Compound 21]
- DC50 (AR): 3.31 µM
- Expression of TMPRSS2 protein, in words (TMPRSS2): significantly downregulate
- TMPRSS2 mRNA level (TMPRSS2; [1]): 0.196
- Expression of ACE2 protein, in words (ACE2): significantly downregulate
- ACE2 mRNA level (ACE2; [1]): 0.234
